{"source": "ChEMBL document CHEMBL5338737", "about": "“Lysine-Specific Demethylase 1 Promises to Be a Novel Target in Cancer Drug Resistance: Therapeutic Implications” (J Med Chem, 2023)", "key": {"[1]": {"biological_target": "T1, Lysine-specific histone demethylase 1A (Homo sapiens, UniProt O60341)", "description": "Inhibition of LSD1 (unknown origin)"}, "[2]": {"biological_target": "T1, Lysine-specific histone demethylase 1A", "test": "Inhibition of recombinant LSD1 (unknown origin) incubated for 1 hr by fluorescence based analysis"}}}
{"smiles": "NC1CC1c1ccc(NC(=O)c2ccc(O)c3ncccc23)cc1", "note": "(stereo not drawn)", "values": [{"measurement": "IC50", "setting": "[1]", "value": "< 1000", "unit": "nM"}]}
{"smiles": "C/C(=N\\NC(=O)c1cccc(S(=O)(=O)N2CCN(C)CC2)c1)c1cc(Cl)ccc1O", "values": [{"measurement": "IC50", "setting": "[1]", "value": 127, "unit": "nM"}]}
{"smiles": "COc1cc2c(c(O)c1OC)c(=O)c1ccccc1n2C", "note": "[ARBORININE]", "values": [{"measurement": "IC50", "setting": "[2]", "value": 400, "unit": "nM"}]}
